Results on 14 compounds are retold here after DBAASP.

≈ marks a conversion by molar mass, not a printed value. Some results are limits rather than exact numbers.

Test in all cases: ≥ marks a high value that may be exact or a test limit, other limits are often not marked, values filed in µg/mL are converted to µM
The test system of experiment [1] is Escherichia coli ATCC 25922.
The test system of experiment [2] is Staphylococcus aureus ATCC 25923.
Experiment [3] concerns Pseudomonas aeruginosa ATCC 27853.

Regarding `CC[C@H](C)[C@H](NC(=O)[C@H](C)NC(=O)CNC(=O)[C@H](C)NC(=O)[C@H](CCCCN)NC(=O)[C@H](CO)NC(=O)[C@H](C)NC(=O)[C@H](CCSC)NC(=O)CN)C(=O)N[C@@H](C)C(=O)NCC(=O)N[C@@H](CCCCN)C(=O)N[C@H](C(=O)N[C@@H](C)C(=O)N[C@@H](CCCCN)C(=O)N[C@H](C(=O)N[C@@H](C)C(=O)N[C@@H](Cc1c[nH]c2ccccc12)C(=O)N[C@@H](CCCCN)C(=O)N[C@@H](C)C(=O)N[C@@H](CC(C)C)C(=O)NCC(=O)NCC(=O)N[C@@H](C)C(N)=O)C(C)C)[C@@H](C)CC` [GMASKAGAIAGKIAKVAWKALGGA], the MIC in experiment [1] was determined as 12.5 µM (≈ 27.9 µg/mL).
As to `C[C@H](NC(=O)[C@H](Cc1c[nH]c2ccccc12)NC(=O)[C@H](CCCN=C(N)N)NC(=O)[C@H](Cc1c[nH]c2ccccc12)NC(=O)[C@H](C)NC(=O)[C@H](CCCN=C(N)N)NC(=O)[C@@H](N)Cc1ccc(O)cc1)C(=O)N[C@@H](Cc1c[nH]c2ccccc12)C(=O)N[C@@H](CCCN=C(N)N)C(=O)N[C@@H](Cc1c[nH]c2ccccc12)C(=O)N[C@@H](CCCN=C(N)N)C(N)=O` [YRAWRWAWRWR], the MIC in experiment [2] was determined as 1.48 µM (≈ 2.5 µg/mL); in experiment [1], 5.91 µM (≈ 9.99 µg/mL); in experiment [3] it was 11.8 µM (≈ 20 µg/mL).
As to `CC[C@H](C)[C@H](NC(=O)CNC(=O)[C@H](CCSC)NC(=O)[C@H](CCCCN)NC(=O)[C@H](C)NC(=O)[C@H](CC(C)C)NC(=O)[C@H](CCCCN)NC(=O)[C@H](CCC(=O)O)NC(=O)[C@H](CC(C)C)NC(=O)CNC(=O)[C@H](CCCCN)NC(=O)[C@H](CC(C)C)NC(=O)[C@@H](NC(=O)[C@H](CO)NC(=O)[C@H](CC(C)C)NC(=O)[C@H](C)N)[C@@H](C)CC)C(=O)N[C@@H](C)C(=O)N[C@@H](CC(C)C)C(=O)N[C@H](C(=O)N[C@@H](CC(N)=O)C(=O)N[C@H]1CSSC[C@@H](C(=O)O)NC(=O)[C@H](CCCCN)NC(=O)[C@H](CCCCN)NC(=O)[C@H]([C@@H](C)O)NC(=O)[C@H](C)NC(=O)[C@H](CCCCN)NC1=O)[C@@H](C)O` [ALSILKGLEKLAKMGIALTNCKATKKC], the MIC in experiment [1] is 28 µM (≈ 79.7 µg/mL).
The same measure, in the same setting: then `CC(C)[C@H](NC(=O)[C@@H]1CCCN1C(=O)[C@@H](N)Cc1ccccc1)C(=O)N[C@H](C(=O)N[C@@H](Cc1c[nH]c2ccccc12)C(=O)N[C@@H](CCCN=C(N)N)C(=O)N[C@@H](Cc1c[nH]c2ccccc12)C(=O)N[C@@H](Cc1c[nH]c2ccccc12)C(=O)N[C@@H](CCCN=C(N)N)C(=O)N[C@@H](Cc1c[nH]c2ccccc12)C(=O)N[C@@H](Cc1c[nH]c2ccccc12)C(=O)N[C@@H](CCCN=C(N)N)C(=O)NCC(N)=O)[C@@H](C)O` [FPVTWRWWRWWRG], with 11.3 µM (≈ 21.7 µg/mL).
As for `NC(=O)[C@H](Cc1c[nH]c2ccccc12)NC(=O)[C@H](CCCN=C(N)N)NC(=O)[C@H](Cc1c[nH]c2ccccc12)NC(=O)[C@H](CCCN=C(N)N)NC(=O)[C@H](Cc1c[nH]c2ccccc12)NC(=O)[C@@H](N)Cc1ccc(O)cc1` [YWRWRW], the MIC was 9.5 µM (≈ 9.99 µg/mL) in experiment [2], 19 µM (≈ 20 µg/mL) in experiment [1] and 47.5 µM (≈ 50 µg/mL) in experiment [3].
Consider `CC[C@H](C)[C@H](NC(=O)[C@H](CCCN=C(N)N)NC(=O)[C@H](CCCCN)NC(=O)[C@H](CC(C)C)NC(=O)[C@H](CC(C)C)NC(=O)CN)C(=O)N[C@@H](CCCCN)C(=O)N[C@@H](CC(C)C)C(=O)N[C@@H](CC(C)C)C(=O)N[C@@H](CC(C)C)C(N)=O` [GLLKRIKLLL], for which the results for the MIC in experiment [2] and in experiment [1] were 6 µM (≈ 6.99 µg/mL) and 11.1 µM (≈ 13 µg/mL), respectively.
With `CC[C@H](C)[C@H](NC(=O)[C@@H](NC(=O)[C@H](CCCCN)NC(=O)[C@H](CC(C)C)NC(=O)[C@H](CC(C)C)NC(=O)CN)C(C)C)C(=O)N[C@@H](CCCCN)C(=O)N[C@H](C(=O)N[C@@H](CC(C)C)C(=O)N[C@@H](CC(C)C)C(N)=O)[C@@H](C)O` [GLLKVIKTLL], the MIC in experiment [2] and in experiment [1] was 2.73 µM (≈ 3 µg/mL) in each case.
Take `CC[C@H](C)[C@H](NC(=O)[C@H](CCCN=C(N)N)NC(=O)[C@H](CCCCN)NC(=O)[C@H](CC(C)C)NC(=O)[C@H](CC(C)C)NC(=O)CN)C(N)=O` [GLLKRI]: the MIC in experiment [2] and in experiment [1] was more than 54.4 µM throughout.
`CC[C@H](C)[C@H](NC(=O)[C@H](CCCN=C(N)N)NC(=O)[C@H](CCCCN)NC(=O)[C@H](CC(C)C)NC(=O)[C@H](CC(C)C)NC(=O)CN)C(=O)N[C@@H](CCCCN)C(=O)N[C@@H](CC(N)=O)C(=O)N[C@@H](CC(C)C)C(=O)N[C@@H](CC(C)C)C(N)=O` [GLLKRIKNLL]: the MIC amounted to 10.3 µM (≈ 12 µg/mL) in experiment [2] and 18.8 µM (≈ 22 µg/mL) in experiment [1].
On to `CC(C)C[C@H](NC(=O)[C@H](Cc1ccccc1)NC(=O)[C@@H]1CCCN1C(=O)[C@H](C)NC(=O)[C@H](C)NC(=O)[C@H](C)NC(=O)[C@@H]1CCCN1C(=O)[C@H](Cc1ccccc1)NC(=O)[C@H](CCCN=C(N)N)NC(=O)[C@H](CCCN=C(N)N)NC(=O)[C@@H](N)C(C)C)C(=O)N[C@@H](CCCN=C(N)N)C(=O)N[C@@H](CCCN=C(N)N)C(N)=O` [VRRFPAAAPFLRR], for which, in experiment [1], the MIC is more than 128 µM.
As to `CC[C@H](C)[C@H](NC(=O)CNC(=O)[C@H](CCCCN)NC(=O)[C@@H](NC(=O)[C@H](CC(C)C)NC(=O)[C@H](CO)NC(=O)CNC(=O)[C@H](CC(C)C)NC(=O)CNC(=O)[C@H](C)NC(=O)[C@H](CCCCN)NC(=O)[C@H](Cc1ccccc1)NC(=O)[C@@H](NC(=O)[C@H](CCC(=O)O)NC(=O)[C@H](CCCCN)NC(=O)[C@H](CC(C)C)NC(=O)CN)[C@@H](C)CC)C(C)C)C(=O)N[C@@H](C)C(=O)N[C@@H](C)C(=O)N[C@@H](Cc1cnc[nH]1)C(=O)N[C@H](C(=O)N[C@@H](C)C(=O)N[C@@H](CC(N)=O)C(N)=O)C(C)C` [GLKEIFKAGLGSLVKGIAAHVAN], the MIC worked out at 200 µM (≈ 459 µg/mL) in experiment [2] and 25 µM (≈ 57.3 µg/mL) in experiment [1].
In experiment [1], `CC(C)C[C@H](NC(=O)[C@H](Cc1ccccc1)NC(=O)[C@@H]1CCCN1C(=O)[C@H](Cc1ccc(O)cc1)NC(=O)[C@H](Cc1c[nH]c2ccccc12)NC(=O)[C@H](Cc1ccc(O)cc1)NC(=O)[C@@H]1CCCN1C(=O)[C@H](Cc1ccccc1)NC(=O)[C@H](CCCN=C(N)N)NC(=O)[C@H](CCCN=C(N)N)NC(=O)[C@@H](N)C(C)C)C(=O)N[C@@H](CCCN=C(N)N)C(=O)N[C@@H](CCCN=C(N)N)C(N)=O` [VRRFPYWYPFLRR] gave an MIC of 16 µM (≈ 29.7 µg/mL).
Compound `CC(C)C[C@H](NC(=O)[C@H](C)NC(=O)[C@H](CCCCN)NC(=O)[C@H](C)NC(=O)[C@H](C)NC(=O)CNC(=O)[C@H](CCCCN)NC(=O)[C@H](CC(C)C)NC(=O)[C@H](CC(C)C)NC(=O)[C@H](CC(=O)O)NC(=O)[C@H](CCCCN)NC(=O)[C@H](Cc1c[nH]c2ccccc12)NC(=O)CN)C(=O)N[C@H](C(=O)N[C@@H](CCCCN)C(=O)N[C@H](C(=O)N[C@H](C(=O)N[C@@H](Cc1ccccc1)C(N)=O)C(C)C)[C@@H](C)O)C(C)C` [GWKDLLKGAAKALVKTVF] had an MIC in experiment [1] of 3 µM (≈ 5.83 µg/mL).
Take `CC[C@H](C)[C@H](NC(=O)[C@@H]1CCCN1C(=O)[C@H](CCCCN)NC(=O)[C@H](CC(C)C)NC(=O)[C@H](C)NC(=O)[C@@H](NC(=O)[C@@H](NC(=O)[C@H](CC(C)C)NC(=O)[C@@H](NC(=O)[C@H](CCCCN)NC(=O)[C@H](CCCCN)NC(=O)[C@H](C)NC(=O)[C@H](C)NC(=O)[C@H](CO)NC(=O)[C@@H](NC(=O)[C@H](CC(C)C)NC(=O)[C@H](CCCCN)NC(=O)[C@H](CCCCN)NC(=O)[C@H](CC(C)C)NC(=O)[C@H](Cc1ccccc1)NC(=O)[C@H](CCCCN)NC(=O)[C@H](CCCCN)NC(=O)[C@H](Cc1c[nH]c2ccccc12)NC(=O)[C@@H](N)CCCCN)[C@@H](C)O)C(C)C)[C@@H](C)O)[C@@H](C)O)C(=O)N[C@@H](CO)C(=O)N[C@@H](CO)C(=O)O` [KWKKFLKKLTSAAKKVLTTALKPISS]: the MIC in experiment [3] worked out at 2 µM (≈ 5.83 µg/mL).

For orientation: MIC means the lowest concentration that inhibits growth of the organism. Low readings indicate greater potency, high ones weaker potency.
